Measurements taken from patent US5858992A, “Non-reducing saccharides, their preparation and use” (Kabushiki Kaisha Hayashibara Seibutsu Kagaku Kenkyujo, priority 1995, dated 1999).

Assays:
Salivary amylase = target: T1, Salivary amylase (Homo sapiens, UniProt P0DUB6); test: in vitro
T1 sequence (P0DUB6 16-511): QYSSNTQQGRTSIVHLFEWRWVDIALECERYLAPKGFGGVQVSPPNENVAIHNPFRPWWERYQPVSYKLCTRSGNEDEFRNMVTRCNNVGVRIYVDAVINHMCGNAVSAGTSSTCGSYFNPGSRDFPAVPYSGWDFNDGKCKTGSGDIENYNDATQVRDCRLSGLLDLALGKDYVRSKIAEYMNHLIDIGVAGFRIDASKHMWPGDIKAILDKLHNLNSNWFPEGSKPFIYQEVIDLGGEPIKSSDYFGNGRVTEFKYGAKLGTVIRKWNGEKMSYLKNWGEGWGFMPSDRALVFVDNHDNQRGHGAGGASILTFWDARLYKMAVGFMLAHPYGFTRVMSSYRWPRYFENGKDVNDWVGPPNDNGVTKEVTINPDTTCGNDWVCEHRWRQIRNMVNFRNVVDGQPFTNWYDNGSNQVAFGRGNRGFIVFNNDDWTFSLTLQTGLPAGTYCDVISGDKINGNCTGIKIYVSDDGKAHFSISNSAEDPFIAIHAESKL

in vitro = conditions: gastric acid
Pancreatic juice amylase = target: T2, Pancreatic juice amylase (Homo sapiens, UniProt P04746); test: in vitro
T2 sequence (P04746 16-511): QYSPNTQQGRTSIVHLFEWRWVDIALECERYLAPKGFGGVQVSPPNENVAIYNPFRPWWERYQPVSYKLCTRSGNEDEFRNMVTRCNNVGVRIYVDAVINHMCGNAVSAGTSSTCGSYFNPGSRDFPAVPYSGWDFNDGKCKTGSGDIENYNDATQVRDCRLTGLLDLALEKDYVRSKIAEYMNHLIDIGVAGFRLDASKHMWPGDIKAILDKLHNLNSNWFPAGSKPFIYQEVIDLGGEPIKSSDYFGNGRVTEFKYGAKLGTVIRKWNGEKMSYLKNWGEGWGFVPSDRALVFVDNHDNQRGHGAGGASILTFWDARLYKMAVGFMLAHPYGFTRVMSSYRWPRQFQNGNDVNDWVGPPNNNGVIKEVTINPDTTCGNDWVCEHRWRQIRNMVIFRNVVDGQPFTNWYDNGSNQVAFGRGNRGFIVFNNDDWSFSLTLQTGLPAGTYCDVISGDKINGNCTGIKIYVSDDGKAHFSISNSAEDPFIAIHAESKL

[1] = Maillard reaction (coloration with glycine); format: physicochemical; conditions: 10 w/v % saccharide, one w/v % glycine, 50 mM phosphate buffer pH 7.0, 100° C. for 90 min, 1-cm light-path cell
[2] = test system: Streptococcus sobrinus ATCC 27351; test: Acid formation by dental caries-inducing microorganisms; conditions: for pH at each fermentation time (min): living wet cells, 0.02M saccharide, Stephen buffer pH 7.0, 37° C.
[3] = test system: Bifidobacterium longum JCM 1217; test: Assimilation test by intestinal microorganism; format: cell-based; conditions: 0.5 w/v % saccharide in PYF broth, 37° C., 96 hours; free of sugar: -
[4] = test system: Clostridium butyricum JCM 1391; format: cell-based; conditions: 0.5 w/v % saccharide in PYF broth, 37° C., 96 hours; free of sugar: -
[5] = test system: Clostridium perfringens JCM 3816; format: cell-based; conditions: 0.5 w/v % saccharide in PYF broth, 37° C., 96 hours; free of sugar: -
[6] = test system: Peptostreptococcus prevotii ATCC 9321; test: Assimilation test by intestinal microorganism; format: cell-based; conditions: 0.5 w/v % saccharide in PYF broth, 37° C., 96 hours; free of sugar: -
Acute toxicity test = format: in vivo; conditions: oral, mice; for LD50: mouse, in vivo
Description: As a result, no mouse died even when administered with a highest possible dose. This means that the LD50 is 50 g/kg mouse or more and concludes that it is extremely low in toxicity.

[7] = test system: Bifidobacterium adolescentis JCM 1275; test: Assimilation test by intestinal microorganism; format: cell-based; conditions: 0.5 w/v % saccharide in PYF broth, 37° C., 96 hours; free of sugar: -
[8] = test system: Bifidobacterium animalis JCM 1190; test: Assimilation test by intestinal microorganism; format: cell-based; conditions: 0.5 w/v % saccharide in PYF broth, 37° C., 96 hours; free of sugar: -
[9] = test system: Bifidobacterium bifidum JCM 1255; test: Assimilation test by intestinal microorganism; format: cell-based; conditions: 0.5 w/v % saccharide in PYF broth, 37° C., 96 hours; free of sugar: -
[10] = test system: Bifidobacterium breve JCM 1192; test: Assimilation test by intestinal microorganism; format: cell-based; conditions: 0.5 w/v % saccharide in PYF broth, 37° C., 96 hours; free of sugar: -
[11] = test system: Bifidobacterium infantis JCM 1222; test: Assimilation test by intestinal microorganism; format: cell-based; conditions: 0.5 w/v % saccharide in PYF broth, 37° C., 96 hours; free of sugar: -
[12] = test system: Lactobacillus fermentum IFO 3959; test: Assimilation test by intestinal microorganism; format: cell-based; conditions: 0.5 w/v % saccharide in PYF broth, 37° C., 96 hours; free of sugar: -
[13] = test system: Lactobacillus plantarum IFO 3070; test: Assimilation test by intestinal microorganism; format: cell-based; conditions: 0.5 w/v % saccharide in PYF broth, 37° C., 96 hours; free of sugar: -
[14] = test system: Eubacterium aerofaciens ATCC 25986; test: Assimilation test by intestinal microorganism; format: cell-based; conditions: 0.5 w/v % saccharide in PYF broth, 37° C., 96 hours; free of sugar: -
[15] = test system: Bacteroides distasonis JCM 5825; test: Assimilation test by intestinal microorganism; format: cell-based; conditions: 0.5 w/v % saccharide in PYF broth, 37° C., 96 hours; free of sugar: -
[16] = test system: Bacteroides vulgatus JCM 5826; test: Assimilation test by intestinal microorganism; format: cell-based; conditions: 0.5 w/v % saccharide in PYF broth, 37° C., 96 hours; free of sugar: -
[17] = test system: Bacteroides uniformis JCM 5828; test: Assimilation test by intestinal microorganism; format: cell-based; conditions: 0.5 w/v % saccharide in PYF broth, 37° C., 96 hours; free of sugar: -
[18] = test system: Clostridium ramosum JCM 1298; test: Assimilation test by intestinal microorganism; format: cell-based; conditions: 0.5 w/v % saccharide in PYF broth, 37° C., 96 hours; free of sugar: -
[19] = test system: Streptococcus faecalis IAM 10065; test: Assimilation test by intestinal microorganism; format: cell-based; conditions: 0.5 w/v % saccharide in PYF broth, 37° C., 96 hours; free of sugar: -
[20] = test system: Escherichia coli IFO 3301; test: Assimilation test by intestinal microorganism; format: cell-based; conditions: 0.5 w/v % saccharide in PYF broth, 37° C., 96 hours; free of sugar: -

## OC[C@H]1O[C@H](O[C@H]2[C@H](O)[C@@H](O)C(O)O[C@@H]2CO)[C@H](O)[C@@H](O)[C@@H]1O (mixture of isomers) [Maltose, reference compound]
Salivary amylase
  metabolised: 0%
In vitro
  degraded: 0%
Pancreatic juice amylase
  metabolised: 0.2%

## OC[C@H]1O[C@H](OC[C@H]2O[C@H](OC[C@H]3OC(O)[C@H](O)[C@@H](O)[C@@H]3O)[C@H](O)[C@@H](O)[C@@H]2O)[C@H](O)[C@@H](O)[C@@H]1O (stereo partly drawn) [Isomaltotriose, isomaltotriose, reference compound]
[1]
  Coloration degree (at a wavelength of 480 nm): 0.642

## OC[C@H]1O[C@H](OC[C@H]2O[C@H](OC[C@H]3O[C@H](OC[C@H]4OC(O)[C@H](O)[C@@H](O)[C@@H]4O)[C@H](O)[C@@H](O)[C@@H]3O)[C@H](O)[C@@H](O)[C@@H]2O)[C@H](O)[C@@H](O)[C@@H]1O (stereo partly drawn) [Isomaltotetraose, isomaltotetraose, reference compound]
[1]
  Coloration degree (at a wavelength of 480 nm): 0.495

## OC[C@H]1O[C@@](CO)(O[C@H]2O[C@H](CO)[C@@H](O)[C@H](O)[C@H]2O)[C@@H](O)[C@@H]1O [Sucrose, reference compound]
[2]
  pH reduction / acid fermentation, in words: rapid
[2]; 0 min
  pH at each fermentation time (min): 7.0
[2]; 5 min
  pH at each fermentation time (min): 4.3
[2]; 15 min
  pH at each fermentation time (min): 4.1
[2]; 30 min
  pH at each fermentation time (min): 4.0
[2]; 60 min
  pH at each fermentation time (min): 4.0
[2]; 90 min
  pH at each fermentation time (min): 4.0

## OC[C@H]1O[C@H](OC[C@H]2O[C@H](O[C@H]3O[C@H](CO[C@H]4O[C@H](CO)[C@@H](O)[C@H](O)[C@H]4O)[C@@H](O)[C@H](O)[C@H]3O)[C@H](O)[C@@H](O)[C@@H]2O)[C@H](O)[C@@H](O)[C@@H]1O [α-Isomaltosyl α-isomaltoside, O-α-D-glucopyranosyl -(1→6)-α-D-glucopyranosyl-O-α-D-glucopyranosyl-(1→6) -α-D-glucopyranoside]
[3]
  Judgement of assimilation (turbidity at 750 nm, ×5): +++ (0.3 or higher)
[4]
  Judgement of assimilation (turbidity at 750 nm, ×5): +++ (0.3 or higher)
[5]
  Judgement of assimilation (turbidity at 750 nm, ×5): - (Less than 0.1)
[6]
  Judgement of assimilation (turbidity at 750 nm, ×5): ± (0.1 or higher but less than 0.15)
Acute toxicity test
  LD50: ≥ 50000 mg/kg
Pancreatic juice amylase
  metabolised: 0.3%
Solubility in solvent; chloroform and ethyl acetate
  Solubility in solvent: Insoluble
Solubility in solvent; methanol and ethanol
  Solubility in solvent: Hardly soluble

## O=C[C@H](O)[C@@H](O)[C@H](O)[C@H](O)CO [glucose, reference compound]
[7]
  Judgement of assimilation (turbidity at 750 nm, ×5): +++ (0.3 or higher)
[8]
  Judgement of assimilation (turbidity at 750 nm, ×5): +++ (0.3 or higher)
[9]
  Judgement of assimilation (turbidity at 750 nm, ×5): ++ (0.2 or higher but less than 0.3)
[10]
  Judgement of assimilation (turbidity at 750 nm, ×5): ++ (0.2 or higher but less than 0.3)
[11]
  Judgement of assimilation (turbidity at 750 nm, ×5): ++ (0.2 or higher but less than 0.3)
[3]
  Judgement of assimilation (turbidity at 750 nm, ×5): +++ (0.3 or higher)
[12]
  Judgement of assimilation (turbidity at 750 nm, ×5): ++ (0.2 or higher but less than 0.3)
[13]
  Judgement of assimilation (turbidity at 750 nm, ×5): ++ (0.2 or higher but less than 0.3)
[14]
  Judgement of assimilation (turbidity at 750 nm, ×5): +++ (0.3 or higher)
[15]
  Judgement of assimilation (turbidity at 750 nm, ×5): ++ (0.2 or higher but less than 0.3)
[16]
  Judgement of assimilation (turbidity at 750 nm, ×5): + (0.15 or higher but less than 0.2)
[17]
  Judgement of assimilation (turbidity at 750 nm, ×5): ++ (0.2 or higher but less than 0.3)
[4]
  Judgement of assimilation (turbidity at 750 nm, ×5): +++ (0.3 or higher)
[5]
  Judgement of assimilation (turbidity at 750 nm, ×5): +++ (0.3 or higher)
[18]
  Judgement of assimilation (turbidity at 750 nm, ×5): + (0.15 or higher but less than 0.2)
[19]
  Judgement of assimilation (turbidity at 750 nm, ×5): ++ (0.2 or higher but less than 0.3)
[6]
  Judgement of assimilation (turbidity at 750 nm, ×5): + (0.15 or higher but less than 0.2)
[20]
  Judgement of assimilation (turbidity at 750 nm, ×5): + (0.15 or higher but less than 0.2)

## OC[C@H]1O[C@H](OC[C@H]2O[C@H](OC[C@H]3O[C@H](O[C@H]4O[C@H](CO)[C@@H](O)[C@H](O)[C@H]4O)[C@H](O)[C@@H](O)[C@@H]3O)[C@H](O)[C@@H](O)[C@@H]2O)[C@H](O)[C@@H](O)[C@@H]1O [α-Isomaltotriosyl α-glucoside, O-α-D-glucopyranosyl-(1→6)-O-α-D-glucopyranosyl-(1→6) α-D-glucopyranosyl α-D-glucopyranoside]
[4]
  Judgement of assimilation (turbidity at 750 nm, ×5): +++ (0.3 or higher)
[6]
  Judgement of assimilation (turbidity at 750 nm, ×5): ± (0.1 or higher but less than 0.15)
Acute toxicity test
  LD50: ≥ 50000 mg/kg
Pancreatic juice amylase
  metabolised: 0.5%

## OC[C@H]1O[C@H](OC[C@H]2O[C@H](O[C@H]3O[C@H](CO)[C@@H](O)[C@H](O)[C@H]3O)[C@H](O)[C@@H](O)[C@@H]2O)[C@H](O)[C@@H](O)[C@@H]1O [O-α-D-glucopyranosyl -(1→6)-α-D-glucopyranosyl α-D-glucopyranoside]
[3]
  Judgement of assimilation (turbidity at 750 nm, ×5): +++ (0.3 or higher)
[5]
  Judgement of assimilation (turbidity at 750 nm, ×5): + (0.15 or higher but less than 0.2)
[6]
  Judgement of assimilation (turbidity at 750 nm, ×5): ± (0.1 or higher but less than 0.15)
Acute toxicity test
  LD50: ≥ 50000 mg/kg
  Mortality at a highest possible dose: no mouse died
Pancreatic juice amylase
  metabolised: 0.5%
